The source of these data is PubChem BioAssay AID328 (DTP/NCI, 2004).

“And” between values parts separate entries of the source, which are not always exact repeats. Equal entries are not always repeated. Inconclusive results and toxic doses are left out.

For this assay, the system named is BDF1 mice, P388 leukemia ip, median survival T/C. Description: NCI In Vivo Anticancer Drug Screen. Data for tumor model P388 Leukemia (intraperitoneal) in B6D2F1 (BDF1) mice. Particulars: endpoint: median survival time, higher = longer survival. In a few lines:
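Antitumour effect was judged in vivo: survival in drug-treated mice, normalised to that of vehicle-dosed controls, gives the reported T/C.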

[1] abbreviates: dose: 75.0 mg/kg/injection, schedule: Q01DX009 (ip), vehicle: saline with Tween-80.
The mark [2] stands for this setting: dose: 50.0 mg/kg/injection, schedule: Q01DX009 (ip), vehicle: saline with Tween-80.
[3] abbreviates: dose: 100.0 mg/kg/injection, schedule: Q01DX009 (ip), vehicle: saline with Tween-80.
[4] abbreviates: dose: 200.0 mg/kg/injection, schedule: Q01DX009 (ip), vehicle: saline with Tween-80.
[5] abbreviates: dose: 50.0 mg/kg/injection, schedule: Q04DX003 (ip), vehicle: saline with Tween-80.
The mark [6] stands for this setting: dose: 100.0 mg/kg/injection, schedule: Q04DX003 (ip), vehicle: saline with Tween-80.
Setting [7] is: dose: 200.0 mg/kg/injection, schedule: Q04DX003 (ip), vehicle: saline with Tween-80.
[8] abbreviates: dose: 150.0 mg/kg/injection, schedule: Q01DX009 (ip), vehicle: saline with Tween-80.
[9] abbreviates: dose: 400.0 mg/kg/injection, schedule: Q04DX003 (ip), vehicle: saline with Tween-80.

With `CC(C)OC(=S)SSc1nc2ccccc2s1`, the T/C by setting is: (dose: 9.37 mg/kg/injection, schedule: Q01DX009 (ip), vehicle: saline) 115 % of control; (dose: 18.75 mg/kg/injection, schedule: Q01DX009 (ip), vehicle: saline) 110 % of control; under setting [1], 112 % of control.
`CCS(=O)(=O)C(N=Nc1ccccc1)S(=O)(=O)CC`: the T/C is 107 % of control (dose: 20.0 mg/kg/injection, schedule: Q01DX009 (ip), vehicle: Klucel (hydroxypropylcellulose) (HPC)); 101 % of control (dose: 40.0 mg/kg/injection, schedule: Q01DX009 (ip), vehicle: Klucel (hydroxypropylcellulose) (HPC)); 107 % of control (dose: 80.0 mg/kg/injection, schedule: Q01DX009 (ip), vehicle: Klucel (hydroxypropylcellulose) (HPC)).
As to `CN=C(NC#N)NCCSCc1nc[nH]c1C`, the T/C was 96 % of control (dose: 12.5 mg/kg/injection, schedule: Q01DX005 (ip), vehicle: Klucel (hydroxypropylcellulose) (HPC)); 92 % of control and 116 % of control (dose: 25.0 mg/kg/injection, schedule: Q01DX005 (ip), vehicle: Klucel (hydroxypropylcellulose) (HPC)); 101 % of control (dose: 50.0 mg/kg/injection, schedule: Q01DX005 (ip), vehicle: Klucel (hydroxypropylcellulose) (HPC)); 93 % of control and 101 % of control (dose: 100.0 mg/kg/injection, schedule: Q01DX005 (ip), vehicle: Klucel (hydroxypropylcellulose) (HPC)); 118 % of control (dose: 200.0 mg/kg/injection, schedule: Q01DX005 (ip), vehicle: Klucel (hydroxypropylcellulose) (HPC)); 95 % of control (dose: 400.0 mg/kg/injection, schedule: Q01DX005 (ip), vehicle: Klucel (hydroxypropylcellulose) (HPC)).
In the case of `OCC(O)C(O)C(O)C(O)C=Nc1ccc(/C=C/c2ccnc3ccccc23)cc1` (stereo not given), the T/C is 109 % of control under setting [2], 105 % of control under setting [3] and 112 % of control under setting [4].
As to `Cc1ccc2ccccc2c1NCCC(=O)O`, the T/C (dose: 100.0 mg/kg/injection, schedule: Q01DX001 (ip), vehicle: Klucel (hydroxypropylcellulose) (HPC)) was 103 % of control; the T/C (dose: 200.0 mg/kg/injection, schedule: Q01DX001 (ip), vehicle: Klucel (hydroxypropylcellulose) (HPC)) is 96 % of control; the T/C (dose: 400.0 mg/kg/injection, schedule: Q01DX001 (ip), vehicle: Klucel (hydroxypropylcellulose) (HPC)) was 100 % of control.
For `NC(=O)c1nnc2cccc(Cl)n12`, the T/C reads like this: (dose: 100.0 mg/kg/injection, schedule: Q01DX001 (ip), vehicle: saline with Tween-80) 112 % of control; (dose: 200.0 mg/kg/injection, schedule: Q01DX001 (ip), vehicle: saline with Tween-80) 103 % of control; (dose: 400.0 mg/kg/injection, schedule: Q01DX001 (ip), vehicle: saline with Tween-80) 96 % of control.
Turning to `C#C/C=C/CC1O/C(=C(\Br)CC)C/C=C\CC1Cl` (stereo not given), the T/C (dose: 12.5 mg/kg/injection, schedule: Q01DX009 (ip), vehicle: other) was 99 % of control; the T/C (dose: 25.0 mg/kg/injection, schedule: Q01DX009 (ip), vehicle: other) was 114 % of control; the T/C (dose: 50.0 mg/kg/injection, schedule: Q01DX009 (ip), vehicle: other) was 99 % of control.
Regarding `O=C(O)CCC(=O)c1ccc(C2CCCCCC2)cc1`, the T/C is, setting by setting: under setting [2], 110 % of control; under setting [3], 115 % of control; (dose: 100.0 mg/kg/injection, schedule: Q04DX003 (ip), vehicle: saline) 95 % of control; under setting [4], 110 % of control; (dose: 400.0 mg/kg/injection, schedule: Q04DX003 (ip), vehicle: saline) 100 % of control.
Take `COc1c(C#N)c2c(c(OC)c1OC)-c1ccc(OC)c(=O)cc1[C@@H](NC(C)=O)CC2`: the T/C (dose: 6.25 mg/kg/injection, schedule: Q01DX009 (ip), vehicle: Klucel (hydroxypropylcellulose) (HPC)) is 119 % of control.
As to `O=[N+]([O-])c1cccc(/C=C/c2ccc(S(=O)(=O)F)cc2)c1`, the T/C was 95 % of control under setting [5], 109 % of control under setting [6] and 95 % of control under setting [7].
Take `CCCCCCCCCC(=O)NO`: the T/C is 100 % of control (dose: 100.0 mg/kg/injection, schedule: Q01DX001 (ip), vehicle: saline sonified); 100 % of control (dose: 200.0 mg/kg/injection, schedule: Q01DX001 (ip), vehicle: saline sonified); 100 % of control (dose: 400.0 mg/kg/injection, schedule: Q01DX001 (ip), vehicle: saline sonified).
Take `O=C(CCCCC(=O)Nc1ccc(C2=NCCN2)cc1)Nc1ccc(C2=NCCN2)cc1`: the T/C is 104 % of control (dose: 3.6 mg/kg/injection, schedule: Q01DX009 (ip), vehicle: Klucel (hydroxypropylcellulose) (HPC)); 100 % of control (dose: 5.4 mg/kg/injection, schedule: Q01DX009 (ip), vehicle: Klucel (hydroxypropylcellulose) (HPC)); 168 % of control (dose: 65.0 mg/kg/injection, schedule: Q01DX009 (ip), vehicle: Klucel (hydroxypropylcellulose) (HPC)); 190 % of control (dose: 100.0 mg/kg/injection, schedule: Q01DX009 (ip), vehicle: Klucel (hydroxypropylcellulose) (HPC)); 111 % of control (dose: 100.0 mg/kg/injection, schedule: Q04DX003 (ip), vehicle: other); 204 % of control (dose: 132.0 mg/kg/injection, schedule: Q01DX009 (ip), vehicle: Klucel (hydroxypropylcellulose) (HPC)). Further, the T/C (dose: 200.0 mg/kg/injection, schedule: Q01DX009 (ip), vehicle: Klucel (hydroxypropylcellulose) (HPC)) is 225 % of control and 172 % of control and 209 % of control; the T/C (dose: 200.0 mg/kg/injection, schedule: Q04DX003 (ip), vehicle: other) is 116 % of control; the T/C (dose: 264.0 mg/kg/injection, schedule: Q04DX003 (ip), vehicle: Klucel (hydroxypropylcellulose) (HPC)) is 180 % of control; the T/C (dose: 300.0 mg/kg/injection, schedule: Q01DX009 (ip), vehicle: Klucel (hydroxypropylcellulose) (HPC)) is 257 % of control and 213 % of control; the T/C (dose: 400.0 mg/kg/injection, schedule: Q01DX009 (ip), vehicle: Klucel (hydroxypropylcellulose) (HPC)) was 100 % of control; the T/C (dose: 400.0 mg/kg/injection, schedule: Q04DX003 (ip), vehicle: Klucel (hydroxypropylcellulose) (HPC)) was 225 % of control and 168 % of control. Further, the T/C (dose: 400.0 mg/kg/injection, schedule: Q04DX003 (ip), vehicle: other) is 161 % of control.
On to `O=P(Oc1cccc2ccccc12)(N1CC1)N1CC1`, for which the T/C reads like this: under setting [3], 181 % of control; under setting [6], 122 % of control; under setting [8], 231 % of control; under setting [7], 150 % of control; (dose: 264.0 mg/kg/injection, schedule: Q04DX003 (ip), vehicle: saline with Tween-80) 200 % of control; under setting [9], 181 % of control and 220 % of control.
For `O=C(O)c1cc(C(=O)O)cc([N+](=O)[O-])c1`, the T/C (dose: 25.0 mg/kg/injection, schedule: Q01DX009 (ip), vehicle: saline with Tween-80) was 100 % of control; the T/C under setting [2] was 100 % of control; the T/C under setting [3] is 90 % of control.
With `Cc1ccc(-c2nc3cc(Cl)ccc3c(=O)o2)cc1`, the T/C is, setting by setting: under setting [2], 110 % of control; under setting [1], 104 % of control; under setting [3], 100 % of control; under setting [6], 109 % of control; under setting [8], 109 % of control; under setting [4], 120 % of control. The T/C by setting is: under setting [7], 109 % of control; (dose: 300.0 mg/kg/injection, schedule: Q01DX009 (ip), vehicle: saline with Tween-80) 95 % of control.
As to `CC(C)C(OCc1ccccc1)C(=O)O` (stereo not given), the T/C by setting is: under setting [5], 100 % of control; under setting [6], 108 % of control; under setting [7], 108 % of control; under setting [9], 108 % of control.
On to `CC12CCCN(CCCl)C1CCC1C2CCC2(C)C1CCCN2CCCl` (stereo not given), for which the T/C is 98 % of control (dose: 0.38 mg/kg/injection, schedule: Q01DX001 (ip), vehicle: saline); 102 % of control (dose: 0.75 mg/kg/injection, schedule: Q01DX001 (ip), vehicle: saline); 102 % of control (dose: 0.78 mg/kg/injection, schedule: Q01DX001 (ip), vehicle: saline); 109 % of control (dose: 1.5 mg/kg/injection, schedule: Q01DX001 (ip), vehicle: saline); 100 % of control (dose: 1.56 mg/kg/injection, schedule: Q01DX001 (ip), vehicle: saline); 107 % of control (dose: 3.13 mg/kg/injection, schedule: Q01DX001 (ip), vehicle: saline). In addition, the T/C (dose: 6.25 mg/kg/injection, schedule: Q01DX001 (ip), vehicle: saline) was 116 % of control.
As to `CC(=O)c1ccc(-c2ccccc2)cc1`, the T/C is 100 % of control under setting [3]; 91 % of control under setting [4]; 95 % of control (dose: 400.0 mg/kg/injection, schedule: Q01DX009 (ip), vehicle: saline with Tween-80).
